Reference: US20040254182A1, “Enhanced propertied pharmaceuticals” (priority 2000, published 2004)

Columns and labels:
Escherichia coli 8739 = assay: High resolution minimum inhibitory concentration (HRMIC) test vs E. coli 8739; type: cell-based; conditions: M9GY medium, 96-well microtiter plate, 10^6 CFU/mL, 30° C. for 24 h; first well with no growth
Protocol: (§1) Several compounds of this invention were tested for biological activity in vitro against Escherichia coli 8739 and Staphylococcus aureus 6538 described below. The following test procedures were employed.
(§2) MIC Determination: The lowest concentration of test compound required to inhibit Escherichia coli 8739 and Staphylococcus aureus 6538 was determined by a high resolution minimum inhibitory concentration (HRMIC) test. Varying amounts of the test compounds were added to minimal salts glucose medium (Maniatis, T., Fritsch, E. F., Sambrook, J. 1982 Molecular Cloning, page 68) supplemented with 0.1% yeast extract (M9GY) in a 96-well microtiter plate. […] serial dilutions were performed on a Biomek 2000 Workstation to obtain a range of closely spaced concentrations of test compound as shown in FIG. 1. A cell suspension of inoculum, adjusted to provide 10^6 CFU/mL in each well, was added to the microtiter plate. Microtiter plates were incubated at 30° C. for 24 h and then were checked for the presence or absence of microbial growth in each well.

[1] = test system: Staphylococcus aureus 6538; assay: High resolution minimum inhibitory concentration (HRMIC) test vs S. aureus 6538; type: cell-based; conditions: M9GY medium, 96-well microtiter plate, 10^6 CFU/mL, 30° C. for 24 h; first well with no growth
Protocol: as §1, §2

SMILES	MIC vs E. coli 8739 Gram-negative (Escherichia coli 8739) [ppm AI]	MIC vs S. aureus 6538 Gram-positive [1] [ppm AI]	melting point [°C]
CCCCOC(=O)C(OC(=O)C(C)C)OC(=O)N1CCN(c2cc3c(cc2F)c(=O)c(C(=O)O)cn3CC)CC1 (centres unmarked) [Compound 8-1, 7-(4-[(Butoxycarbonyl)(2-methylpropanoyloxy)methoxycarbonyl]-1-piperazinyl)-1-ethyl-6-fluoro-1,4-dihydro-4-oxo-3-quinolinecarboxylic acid]	2.5	0.06	151.5 to 160
CCn1cc(C(=O)O)c(=O)c2cc(F)c(N3CCN(C(=O)OC(OC(=O)c4ccccc4)C(=O)OC(C)C)CC3)cc21 (centres unmarked) [Compound 8-2, 7-(4-[(Isopropoxycarbonyl)(benzoyloxy)methoxycarbonyl]-1-piperazinyl)-1-ethyl-6-fluoro-1,4-dihydro-4-oxo-3-quinolinecarboxylic acid]	3	0.45	135 to 143
CCCCCCCCCCCC(=O)OC(OC(=O)N1CCN(c2cc3c(cc2F)c(=O)c(C(=O)O)cn3CC)CC1)C(=O)OC(C)C (centres unmarked) [Compound 8-3, 7-(4-[(Isopropoxycarbonyl)(dodecanoyloxy)methoxycarbonyl]-1-piperazinyl)-1-ethyl-6-fluoro-1,4-dihydro-4-oxo-3-quinolinecarboxylic acid]	40	4.5	105.5 to 109.2
CCn1cc(C(=O)O)c(=O)c2cc(F)c(N3CCN(C(=O)OC(OC(=O)C(C)c4ccc(CC(C)C)cc4)C(=O)OC(C)C)CC3)cc21 (centres unmarked) [Compound 8-4, 7-(4-[(2-[4-(2-Methylpropyl)phenyl]propanoyloxy)(isopropoxycarbonyl)methoxy-carbonyl]-1-piperazinyl)-1-ethyl-6-fluoro-1,4-dihydro-4-oxo-3-quinolinecarboxylic acid]	>1000	0.7	88 to 96.5
CCn1cc(C(=O)O)c(=O)c2cc(F)c(N3CCNCC3)cc21 [Norfloxacin, reference compound]	0.2	0.9	–
